How the values were obtained:
CD46 expression [1] = test: CD46 expression by RNA-sequencing in unpaired pre-treatment and post-treatment tumor biopsies; format: in vivo, human; details: for CD46 expression diff: Post minus Pre, unpaired biopsies, log2-transformed counts; for CD46 expression Percentage change: post- vs pre-treatment unpaired biopsies; for CD46 expression Post: post-treatment biopsies, unpaired, RNA-seq log2-transformed normalized counts
CD46 expression [2] = test: CD46 expression by RNA-sequencing in paired tumor biopsies before and after therapy; details: for CD46 expression diff (post minus pre) / Percent Change in CD46 expression / CD46 expression, Post-Treatment Biopsy / CD46 expression, Pre-Treatment Biopsy: paired biopsies; for CD46 expression, Post-Treatment Biopsy / CD46 expression, Pre-Treatment Biopsy: RNA-seq log2-transformed counts;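 on all read-outs here: FFPE human tumor biopsies, exome-capture RNA-seq, reads aligned to GRCh37, counts normalized for GC content, length and depth, summed per gene, log2-transformed, samples paired before versus after therapy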
[3] = Head and Neck Squamous Cell Carcinoma

## C[C@]12CC[C@H](O)CC1=CC[C@@H]1[C@@H]2CC[C@]2(C)C(c3cccnc3)=CC[C@@H]12 [abiraterone]
CD46 expression [1]; Prostate Cancer
  CD46 expression diff: −0.07
  CD46 expression Percentage change: −1.1%
  CD46 expression Post: 6.10
CD46 expression [2]; Prostate Cancer
  CD46 expression diff (post minus pre): 0.29
  Percent Change in CD46 expression: 5.1%

## Cc1nc(NC(=O)N2CCC[C@H]2C(N)=O)sc1-c1ccnc(C(C)(C)C(F)(F)F)c1 [alpelisib]
CD46 expression [1]; Breast Cancer
  CD46 expression diff: 0.13
  CD46 expression Percentage change: 2.0%
  CD46 expression Post: 6.67
CD46 expression [2]; Breast Cancer
  CD46 expression diff (post minus pre): −0.01
  Percent Change in CD46 expression: −0.1%
  CD46 expression, Post-Treatment Biopsy: 6.57

## CC(C)(C#N)c1cc(Cn2cncn2)cc(C(C)(C)C#N)c1 [anastrozole]
CD46 expression [1]; Breast Cancer
  CD46 expression diff: 0.06
  CD46 expression Percentage change: 0.9%
  CD46 expression Post: 6.41
CD46 expression [2]; Breast Cancer
  CD46 expression diff (post minus pre): 0.41
  Percent Change in CD46 expression: 6.7%
  CD46 expression, Post-Treatment Biopsy: 6.49
CD46 expression [2]; breast cancer, 15 of 19 subjects, FIG. 3
  subjects whose paired biopsies showed increased CD46 expression: 79%

## CC(O)(CS(=O)(=O)c1ccc(F)cc1)C(=O)Nc1ccc(C#N)c(C(F)(F)F)c1 (centres unmarked) [bicalutamide]
CD46 expression [1]; Prostate Cancer
  CD46 expression diff: −0.06
  CD46 expression Percentage change: −0.9%
CD46 expression [2]; Prostate Cancer
  CD46 expression diff (post minus pre): −0.24
  Percent Change in CD46 expression: −3.8%
  CD46 expression, Post-Treatment Biopsy: 6.08

## CO[C@H]1C(=O)[C@]2(C)[C@@H](OC)C[C@H]3OC[C@@]3(OC(C)=O)[C@H]2[C@H](OC(=O)c2ccccc2)[C@]2(O)C[C@H](OC(=O)[C@H](O)[C@@H](NC(=O)OC(C)(C)C)c3ccccc3)C(C)=C1C2(C)C [cabazitaxel]
CD46 expression [1]; Prostate Cancer
  CD46 expression diff: 0.09
  CD46 expression Percentage change: 1.6%
CD46 expression [2]; Prostate Cancer
  CD46 expression diff (post minus pre): 0.07
  Percent Change in CD46 expression: 1.2%
  CD46 expression, Post-Treatment Biopsy: 5.93

## CCCCCOC(=O)Nc1nc(=O)n([C@@H]2O[C@H](C)[C@@H](O)[C@H]2O)cc1F [capecitabine]
CD46 expression [1]; Biliary Cancer
  CD46 expression diff: 0.10
  CD46 expression Percentage change: 1.8%
  CD46 expression Post: 5.87
CD46 expression [1]; Breast Cancer
  CD46 expression diff: −0.07
  CD46 expression Percentage change: −1.2%
  CD46 expression Post: 6.15
CD46 expression [1]; Colorectal Cancer
  CD46 expression diff: 0.05
  CD46 expression Percentage change: 0.8%
  CD46 expression Post: 6.43
CD46 expression [1]; Endocrine Tumor
  CD46 expression diff: 0.06
  CD46 expression Percentage change: 1.1%
  CD46 expression Post: 5.66
CD46 expression [1]; Esophageal Cancer
  CD46 expression diff: 0.05
  CD46 expression Percentage change: 0.8%
  CD46 expression Post: 6.02
CD46 expression [1]; Gastric Cancer
  CD46 expression diff: −0.04
  CD46 expression Percentage change: −0.7%
  CD46 expression Post: 5.73
CD46 expression [1]; Pancreatic Cancer
  CD46 expression diff: 0.07
  CD46 expression Percentage change: 1.2%
  CD46 expression Post: 5.93
CD46 expression [2]; Breast Cancer
  CD46 expression diff (post minus pre): −0.06
  Percent Change in CD46 expression: −0.9%
  CD46 expression, Post-Treatment Biopsy: 6.23
CD46 expression [2]; Colorectal Cancer
  CD46 expression diff (post minus pre): 0.06
  Percent Change in CD46 expression: 1.0%
CD46 expression [2]; Pancreatic Cancer
  CD46 expression diff (post minus pre): 0.16
  Percent Change in CD46 expression: 2.8%
  CD46 expression, Post-Treatment Biopsy: 5.98

## N.N.O=C([O-])C1(C(=O)[O-])CCC1.[Pt+2] [carboplatin]
CD46 expression [1]; Bladder Cancer
  CD46 expression diff: 0.14
  CD46 expression Percentage change: 2.3%
  CD46 expression Post: 6.12
CD46 expression [1]; Breast Cancer
  CD46 expression diff: −0.07
  CD46 expression Percentage change: −1.1%
  CD46 expression Post: 6.00
CD46 expression [1]; Colorectal Cancer
  CD46 expression diff: 0.59
  CD46 expression Percentage change: 10.3%
  CD46 expression Post: 6.35
CD46 expression [1]; Endocrine Tumor
  CD46 expression diff: 0.22
  CD46 expression Percentage change: 3.9%
  CD46 expression Post: 5.90
CD46 expression [1]; Endometrial Cancer
  CD46 expression diff: 0.01
  CD46 expression Percentage change: 0.2%
  CD46 expression Post: 5.83
CD46 expression [1]; Esophageal Cancer
  CD46 expression diff: −0.11
  CD46 expression Percentage change: −1.8%
  CD46 expression Post: 5.79
CD46 expression [1]; [3]
  CD46 expression diff: 0.11
  CD46 expression Percentage change: 2.0%
  CD46 expression Post: 5.69
CD46 expression [1]; Non-Small Cell Lung Cancer
  CD46 expression diff: −0.08
  CD46 expression Percentage change: −1.2%
  CD46 expression Post: 6.10
CD46 expression [1]; Ovarian Cancer
  CD46 expression diff: −0.01
  CD46 expression Percentage change: −0.2%
  CD46 expression Post: 5.73
CD46 expression [1]; Prostate Cancer
  CD46 expression diff: −0.03
  CD46 expression Percentage change: −0.5%
  CD46 expression Post: 5.92
CD46 expression [2]; Breast Cancer
  CD46 expression diff (post minus pre): −0.08
  Percent Change in CD46 expression: −1.2%
  CD46 expression, Post-Treatment Biopsy: 6.06
  CD46 expression, Pre-Treatment Biopsy: 6.14
CD46 expression [2]; Endometrial Cancer
  CD46 expression diff (post minus pre): 0.30
  Percent Change in CD46 expression: 5.1%
  CD46 expression, Pre-Treatment Biopsy: 5.95
CD46 expression [2]; Non-Small Cell Lung Cancer
  CD46 expression diff (post minus pre): −0.06
  Percent Change in CD46 expression: −1.0%
  CD46 expression, Post-Treatment Biopsy: 6.07
CD46 expression [2]; Ovarian Cancer
  CD46 expression diff (post minus pre): 0.01
  Percent Change in CD46 expression: 0.2%
  CD46 expression, Post-Treatment Biopsy: 5.67
  CD46 expression, Pre-Treatment Biopsy: 5.66

## CC[C@]1(O)C[C@H]2CN(CCc3c([nH]c4ccccc34)[C@@](C(=O)OC)(c3cc4c(cc3OC)N(C=O)[C@H]3[C@@](O)(C(=O)OC)[C@H](OC(C)=O)[C@]5(CC)C=CCN6CC[C@]43[C@@H]65)C2)C1 [vincristine]
CD46 expression [1]; Sarcoma
  CD46 expression diff: −0.03
  CD46 expression Percentage change: −0.5%
  CD46 expression Post: 5.09

Reference: patent US20240058464A1 (Fortis Therapeutics, Inc., priority 2021, published 2024)
